# According to patent US10392412B2, “Platinum anticancer agents” (THE REGENTS OF THE UNIVERSITY OF CALIFORNIA, priority 2015, dated 2019):
# “Also recorded” adds a separate entry of the source. Like-named read-outs stand apart in the source and are kept apart here.
# What was measured:
# [1] = tested on: SNF539 cells; assay: Cytotoxicity CellTiter-Glo; type: cell-based, human
# [2] = tested on: U251 cells; assay: Cytotoxicity CellTiter-Glo; type: cell-based, human
# [3] = tested on: U-2 OS cells; assay: Cytotoxicity CellTiter-Glo; type: cell-based, human
# [4] = tested on: RMS13 cells; assay: Cytotoxicity CellTiter-Glo; type: cell-based, human; settings: RMS13, Rhabdomyosarcoma
# [5] = tested on: Kelly cells; assay: Cytotoxicity CellTiter-Glo; type: cell-based, human
# [6] = tested on: SHEP cells; assay: Cytotoxicity CellTiter-Glo; type: cell-based, human
# [7] = Maximum tolerated dose study: clinical chemistry evaluation (blood cell parameters, Table 6)
# Experimental: The mice used in MTD were given standard chow devoid of added folic acid (low folate diet) (See, Leamon C P et al., J. Pharmacol. Exp. Ther. 327: 918-925). […] Therefore we also designed a MTD study in mice treated with low folate diet. Food consumption on the day before injection (Day −1) was recorded and then it was monitored every other day. […] Blood for clinical chemistry was collected if possible. Liver, kidney and bone marrow were collected. One side of each tissue (except bone marrow) will be fixed in 4-10% formalin for future histology analysis, and the rest of tissue will be cut into pieces, snap frozen, and stored at −80° C. until analysis. Blood samples for clinical chemistry were centrifuged at 8000 rpm for 10 min at 4° C. within 1 hour of collection. Plasma was collected into 1.5 mL eppendorf tubes and stored at −80° C. until analysis. The measured parameters were alanine transaminase (ALT), aspartate transaminase (AST), alkaline phosphatase (ALP), total bilirubin, glucose, blood urea nitrogen (BUN), creatinine, and electrolytes. All experiments were housed in a virus-free, temperature controlled facility on a 12-h light-dark cycle.
# [8] = molecular target: T1, SLC19A1 (Homo sapiens, UniProt P41440); assay: Inhibition of SLC19A1-mediated uptake of 3H-methotrexate; type: cell-based; settings: read-out: IC50, inhibition of SLC19A1-mediated uptake of 3H-methotrexate
# T1 sequence (P41440 1-591): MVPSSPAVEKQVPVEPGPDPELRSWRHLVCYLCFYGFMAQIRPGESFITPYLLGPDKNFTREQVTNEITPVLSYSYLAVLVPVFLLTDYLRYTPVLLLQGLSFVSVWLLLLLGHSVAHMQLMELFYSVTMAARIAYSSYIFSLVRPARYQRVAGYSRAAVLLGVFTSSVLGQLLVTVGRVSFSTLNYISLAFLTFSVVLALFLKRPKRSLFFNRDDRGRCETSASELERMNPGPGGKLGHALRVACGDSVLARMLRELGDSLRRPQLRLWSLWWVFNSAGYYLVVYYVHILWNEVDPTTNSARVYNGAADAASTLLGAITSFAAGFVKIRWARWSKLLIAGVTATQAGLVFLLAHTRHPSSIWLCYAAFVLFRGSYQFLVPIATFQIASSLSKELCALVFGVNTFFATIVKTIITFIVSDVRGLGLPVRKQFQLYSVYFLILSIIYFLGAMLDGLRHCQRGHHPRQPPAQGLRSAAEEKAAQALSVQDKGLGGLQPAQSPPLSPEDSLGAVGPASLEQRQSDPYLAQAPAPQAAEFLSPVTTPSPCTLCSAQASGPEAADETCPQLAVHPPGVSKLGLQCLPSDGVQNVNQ
# From the text: FIG. 10. […] SM69 inhibits DHFR to a lesser degree (at SM69 concentrations of only 10% to 20% of the enzyme activity was inhibited).
# [9] = Lethality in C57BL/6 mice, i.v. once a week
# From the text: The concentration versus time course of total platinum followed a two-compartment model in the mice. […] In the maximum tolerated dose studies, we observed body weight reduction in all mice due to the low folate diet (FIG. 6).
# [10] = tested on: SK-N-DZ neuroblastoma xenografts; assay: SK-N-DZ neuroblastoma xenograft in nu/nu mice; type: in vivo, mouse; settings: for tumor volume / tumor growth: SKNDZ neuroblastoma xenograft, 5 mg/kg i.v. once a week for 4 weeks
# Experimental: The xenograft studies were performed by subcutaneous injection of SK-N-DZ (neuroblastoma, 30×10^6 cells/animal) and RMS13 (rhabdomyosarcoma, 20×10^6 cells/animal) in right flank of the male Charles River Laboratories nu/nu mice (7-8 weeks old, weight ˜20 g). Mice were treated by intravenous tail vein injection once a week for 4 weeks. The tumor sizes and body weights were monitored twice a week. Tumor volumes were calculated according to the following formula: volume=height×[…]×length×0.5236.
# [11] = read-out: IC50 (50% growth inhibition), Neuroblastoma, 72 hours
substance,measurement,setting,value
[Pt(DMSO)methotrexate(Cl)] [SM-69],IC50,"[1]; read-out: IC50 (50% growth inhibition), SNF539, Brain, 72 hours",1.2 ± 1.1 µM
same,IC50,"[1]; read-out: IC50 ± S.D. (50% growth inhibition), SF539, Brain - High grade, + 1 mM Folic Acid",13.4 ± 4.8 µM
same,IC50,"[2]; read-out: IC50 (50% growth inhibition), U251, Brain, 72 hours",4 ± 4.5 µM
same,IC50,"[2]; read-out: IC50 ± S.D. (50% growth inhibition), U251, Brain - High grade, + 1 mM Folic Acid",6.1 ± 0.29 µM
same,IC50,"[2]; read-out: IC50 ± S.D. (50% growth inhibition), U251, Brain - High grade, two independent experiments",0.25 ± 0.02 µM
same,GI50,[3]; Osteosarcoma,18 ± 15 µM
same,IC50,"[3]; read-out: IC50 (50% growth inhibition), Osteosarcoma, 72 hours",18 ± 15 µM
same,GI50,[4],4.1 ± 2.3 µM
same,IC50,"[4]; read-out: IC50 (50% growth inhibition), 72 hours",4.1 ± 2.3 µM
same,GI50,[5]; Neuroblastoma,3.7 ± 2.7 µM
same,IC50,[5]; [11],3.7 ± 2.7 µM
same,GI50,[6]; Neuroblastoma,2.7 ± 2.3 µM
same,IC50,[6]; [11],2.7 ± 2.3 µM
same,RDWa,[7]; 2.5 mpk i.v. once a week,30.35
same,granulocytes (GRAN %),[7]; 2.5 mpk i.v. once a week,31.88%
same,granulocytes (GRAN),[7]; 2.5 mpk i.v. once a week,3.55
same,hematocrit (HCT),[7]; 2.5 mpk i.v. once a week,46.20
same,hemoglobin (HGB),[7]; 2.5 mpk i.v. once a week,16.20
same,lymphocytes (LYM %),[7]; 2.5 mpk i.v. once a week,60.70%
same,lymphocytes (LYM),[7]; 2.5 mpk i.v. once a week,6.65
same,mean corpuscular hemoglobin (MCH),[7]; 2.5 mpk i.v. once a week,15.65
same,mean corpuscular hemoglobin concentration (MCHC),[7]; 2.5 mpk i.v. once a week,35.08
same,mean corpuscular volume (MCV),[7]; 2.5 mpk i.v. once a week,44.68
same,mean platelet volume (MPV),[7]; 2.5 mpk i.v. once a week,6.68
same,monocytes (MONO %),[7]; 2.5 mpk i.v. once a week,7.43%
same,monocytes (MONO),[7]; 2.5 mpk i.v. once a week,0.83
same,platelet count (PLT),[7]; 2.5 mpk i.v. once a week,193.00
same,red blood cell count (RBC),[7]; 2.5 mpk i.v. once a week,10.34
same,red cell distribution width (RDW %),[7]; 2.5 mpk i.v. once a week,21.53%
same,white blood cell count (WBC),[7]; 2.5 mpk i.v. once a week,11.03
same,RDWa,[7]; 5 mpk i.v. once a week,30.10
same,granulocytes (GRAN %),[7]; 5 mpk i.v. once a week,33.28%
same,granulocytes (GRAN),[7]; 5 mpk i.v. once a week,3.55
same,hematocrit (HCT),[7]; 5 mpk i.v. once a week,47.65
same,hemoglobin (HGB),[7]; 5 mpk i.v. once a week,17.08
same,lymphocytes (LYM %),[7]; 5 mpk i.v. once a week,58.70%
same,lymphocytes (LYM),[7]; 5 mpk i.v. once a week,6.38
same,mean corpuscular hemoglobin (MCH),[7]; 5 mpk i.v. once a week,15.73
same,mean corpuscular hemoglobin concentration (MCHC),[7]; 5 mpk i.v. once a week,35.83
same,mean corpuscular volume (MCV),[7]; 5 mpk i.v. once a week,43.95
same,mean platelet volume (MPV),[7]; 5 mpk i.v. once a week,6.83
same,monocytes (MONO %),[7]; 5 mpk i.v. once a week,8.03%
same,monocytes (MONO),[7]; 5 mpk i.v. once a week,0.88
same,platelet count (PLT),[7]; 5 mpk i.v. once a week,182.25
same,red blood cell count (RBC),[7]; 5 mpk i.v. once a week,10.86
same,red cell distribution width (RDW %),[7]; 5 mpk i.v. once a week,21.93%
same,white blood cell count (WBC),[7]; 5 mpk i.v. once a week,10.80
same,RDWa,[7]; 7.5 mpk i.v. once a week,29.67
same,granulocytes (GRAN %),[7]; 7.5 mpk i.v. once a week,36.03%
same,granulocytes (GRAN),[7]; 7.5 mpk i.v. once a week,4.40
same,hematocrit (HCT),[7]; 7.5 mpk i.v. once a week,45.47
same,hemoglobin (HGB),[7]; 7.5 mpk i.v. once a week,16.23
same,lymphocytes (LYM %),[7]; 7.5 mpk i.v. once a week,56.53%
same,lymphocytes (LYM),[7]; 7.5 mpk i.v. once a week,7.07
same,mean corpuscular hemoglobin (MCH),[7]; 7.5 mpk i.v. once a week,15.63
same,mean corpuscular hemoglobin concentration (MCHC),[7]; 7.5 mpk i.v. once a week,35.73
same,mean corpuscular volume (MCV),[7]; 7.5 mpk i.v. once a week,43.80
same,mean platelet volume (MPV),[7]; 7.5 mpk i.v. once a week,6.40
same,monocytes (MONO %),[7]; 7.5 mpk i.v. once a week,7.43%
same,monocytes (MONO),[7]; 7.5 mpk i.v. once a week,0.93
same,platelet count (PLT),[7]; 7.5 mpk i.v. once a week,171.33
same,red blood cell count (RBC),[7]; 7.5 mpk i.v. once a week,10.38
same,red cell distribution width (RDW %),[7]; 7.5 mpk i.v. once a week,21.87%
same,white blood cell count (WBC),[7]; 7.5 mpk i.v. once a week,12.40
same,IC50,[8],6.5 µM
same,lethality,[9]; 5 mg/kg i.v. once a week,not
same,lethality,[9]; 10 mg/kg i.v. once a week,lethal
same,tumor volume / tumor growth,[10]; 5 mg/kg,significantly different compared with other groups; also recorded: significantly lower compared with SM-70
same,tumor volume / tumor growth,"[10]; listed as AT-69, 5 mg/kg",significantly reduces NB tumor growth; also recorded: inhibited tumor growth; also recorded: more potent than cisplatin
same,survival,"[10]; SKNDZ xenograft model, 5 mpk, listed as AT-69, 5 mg/kg",significant increase; also recorded: significantly increase survival; also recorded: significant difference in survival; also recorded: increase survival rate
